Measured values taken from patent publication US20040029823A1, “Antisense oligonucleotide compositions and methods for the modulation of JNK proteins” (priority 1997, published 2004).
“And” between values parts separate entries of the source, which are not always exact repeats. Equal values may be shown once. Read-outs that look alike come from different tables or passages of the source. e = 2'-O-(2-methoxyethyl) (MOE); [5mC] = 5-methylcytosine; d = 2'-deoxy (DNA)

Columns and labels:
JNK1 mRNA = assay: Northern assay of JNK1 mRNA expression in A549 cells; assay type: cell-based, human; settings: for Normalized % Control / RNA % Control: JNK1 mRNA; for Normalized % Control: chemically modified oligonucleotides; for RNA % Control: 300 nM for 20 hours then 200 nM for 4 hours
Description: (§1) In order to evaluate the activity of potential JNK-modulating oligonucleotides, human lung carcinoma cell line A549 (American Type Culture Collection, Rockville, Md. No. ATCC CCL-185) cells or other cell lines as indicated in the Examples, were grown and treated with oligonucleotides or control solutions as detailed below. After harvesting, cellular extracts were prepared and examined for specific JNK mRNA levels or JNK protein levels (i.e., Northern or Western assays, respectively). In all cases, “% expression” refers to the amount of JNK-specific signal in an oligonucleotide-treated cell relative to an untreated cell (or a cell treated with a control solution that lacks oligonucleotide), and “% inhibition” is calculated as
100%−% Expression =% Inhibition.
Northern Assays: The mRNA expression of each JNK protein was determined by using a nucleic acid probe specifically hybridizable thereto. Nucleic acid probes specific for JNK1, JNK2 and JNK3 are described in Examples 3, 4 and 5, respectively. The probes were radiolabelled by means well known in the art (see, e.g., Short Protocols in Molecular Biology, 2nd Ed., Ausubel et al., Eds., John Wiley & Sons, New York, 1992, pages 3-11 to 2-3-44 and 4-17 to 4-18; Ruth, Chapter 6 In: Methods in Molecular Biology, Vol. 26: Protocols for Oligonucleotide Conjugates, Agrawal, ed., Humana Press Inc., Totowa, N.J., 1994, pages 167-185; and Chapter 10 In: Molecular Cloning: A Laboratory Manual, 2nd Ed., Sambrook et al., Eds., pages 10.1-10.70). The blots were stripped and reprobed with a ^32P-labeled glyceraldehyde 3-phosphate dehydrogenase (G3PDH) probe (Clontech Laboratories, Inc., Palo Alto, Calif.) in order to confirm equal loading of RNA and to allow the levels of JNK transcripts to be normalized with regard to the G3PDH signals.
A549 cells were grown in T-75 flasks until 80-90% confluent. At this time, the cells were washed twice with 10 mL of media (DMEM), followed by the addition of 5 mL of DMEM containing 20 μg/mL of LIPOFECTIN™ (i.e., 1:1 (w/w) DOTMA/DOPE, Life Technologies, Gaithersburg, Md.; DOTMA=N-[1-(2,3-dioleyoxy)propyl]-N,N,N-trimethylammonium chloride; DOPE=dioleoyl phosphatidylethanolamine). The oligonucleotides were added from a 10 μM stock solution to a final concentration of 400 nM, and the two solutions were mixed by swirling the flasks. As a control, cells were treated with LIPOFECTIN™ without oligonucleotide under the same conditions and for the same times as the oligonucleotide-treated samples. After 4 hours at 37° C., the medium was replaced with fresh DMEM containing 10% serum. The cells were allowed to recover for 18 hours. Total cellular RNA was then extracted in guanidinium, subject to gel electrophoresis and transferred to a filter according to techniques known in the art (see, e.g., Chapter 7 In: Molecular Cloning: A Laboratory Manual, 2nd Ed., Sambrook et al., Eds., pages 7.1-7.87, and Short Protocols in Molecular Biology, 2nd Ed., Ausubel et al., Eds., John Wiley & Sons, New York, 1992, pages 2-24 to 2-30 and 4-14 to 4-29). Filters were typically hybridized overnight to a probe specific for the particular JNK gene of interest in hybridization buffer (25 mM KPO4, pH 7.4; 5×SSC; 5× Denhardt's solution, 100 μg/ml Salmon sperm DNA and 50% formamide) (Alahari et al., Nucl. Acids Res., 1993, 21, 4079). This was followed by two washes with 1×SSC, 0.1% SDS and two washes with 0.25×SSC, 0.1% SDS. Hybridizing bands were visualized by exposure to X-OMAT AR film and quantitated using a PHOSPHORIMAGER™ essentially according to the manufacturer's instructions (Molecular Dynamics, Sunnyvale, Calif.)
B. JNK1-specific probes: In initial screenings of a set of oligonucleotides derived from the JNK1 sequence (Table 2) for biological activity, a cDNA clone of JNK1 (Derijard et al., Cell, 1994, 76, 1025) was radiolabeled and used as a JNK1-specific probe in Northern blots. […]

MDA-MB-231 tumors = assay: MDA-MB-231 human breast adenocarcinoma tumors in nude mice; assay type: in vivo; settings: MDA-MB-231 tumors, 25 mg/kg intravenous once daily
From the text: Approximately 5×10^6 breast adenocarcinoma cells (cell line MDA-MB-231; American Type Culture Collection, Richmond, Va., No. ATCC HTB-26) were implanted subcutaneously in the right inner thigh of nude mice (n=6 for each of three sets of mice). Oligonucleotides ISIS 15346 (JNK1, SEQ ID NO: 16) and 15353 (JNK2, SEQ ID NO: 31) were suspended in saline and administered once daily to two sets of mice on the first day the tumor volume was about […]. A saline-only (0.9% NaCl) solution was given to a third set of animals as a control. Oligonucleotides were given by intravenous injection at a dosage of 25 mg/kg. Tumor size was measured and tumor volume was calculated on days 12, 19, 26 and 33 following tumor cell inoculation.

JNK1 protein = assay: Western assay of JNK1 protein levels in A549 cells; assay type: cell-based, human; settings: 300 nM for 20 hours then 200 nM for 4 hours
Description: as §1
Western Assays: A549 cells were grown and treated with oligonucleotides as described above. Cells were lysed, and protein extracts were electrophoresed (SDS-PAGE) and transferred to nitrocellulose filters by means known in the art (see, e.g., Chapter 18 In: Molecular Cloning: A Laboratory Manual, 2nd Ed., Sambrook et al., Eds., pages 18.34, 18.47-18.54 and 18.60-18.75)). The amount of each JNK protein was determined by using a primary antibody that specifically recognizes the appropriate JNK protein. The primary antibodies specific for each JNK protein are described in the appropriate Examples. The primary antibodies were detected by means well known in the art (see, e.g., Short Protocols in Molecular Biology, 2nd Ed., Ausubel et al., Eds., John Wiley & Sons, New York, 1992, pages 10-33 to 10-35; and Chapter 18 In: Molecular Cloning: A Laboratory Manual, 2nd Ed., Sambrook et al., Eds., pages 18.1-18.75 and 18.86-18.88) and quantitated using a PHOSPHORIMAGER™ essentially according to the manufacturer's instructions (Molecular Dynamics, Sunnyvale, Calif.).
F. Western Assays: In order to assess the effect of oligonucleotides targeted to JNK1 mRNAs on JNK1 protein levels, Western assays were performed essentially as described above in Example 2, with the following exception(s) and/or modification(s). A primary antibody that specifically binds to JNK1 (catalog No. sc-474-G) was purchased from Santa Cruz Biotechnology, Inc. (Santa Cruz, Calif.; other JNK1-specific antibodies are available from StressGen Biotechnologies, Inc., Victoria, BC, Canada; and Research Diagnostics, Inc., Flanders, N.J.). In this experiment, cells were grown and treated with oligonucleotide at 300 nM for the initial 20 hours and then at 200 nM for 4 hours. At t=48 h, aliquots were removed for Northern and Western analyses, and fresh media was added to the cells. Aliquots for analysis were also taken at t=72 h. The samples from t=48 h and t=72 h were analyzed using the Northern and Western assays described above.

HUVEC = assay: Apoptosis in HUVEC (percent hypodiploid cells, flow cytometry); assay type: cell-based, human

15346 (antisense CTCTCTGTAGGCCCGCTTGG; sugars from the 5' end e5 d9 e6, [5mC] at 1, 3, 5, 16, all phosphorothioate, methylation of C not given here) [compound 15346]
Normalized % Control (JNK1 mRNA; dose 100 nM): 22.6% | Normalized % Control (JNK1 mRNA; dose 400 nM): 11.0% | RNA % Control (JNK1 mRNA; t = 48 h): 4.3% | RNA % Control (JNK1 mRNA; t = 72 h): 10.6% | inhibition of JNK1 mRNA expression (JNK1 mRNA; chemically modified derivatives of ISIS 12539, 400 nM (Table 5)): at least 88% | tumor growth compared to the saline control (MDA-MB-231 tumors): inhibited tumor growth | Protein % Control (JNK1 protein; t = 48 h): 42.7% | Protein % Control (JNK1 protein; t = 72 h): 25.7%

CTTTCCGTTGGACCCCTGGG (phosphorothioate, 2'-MOE gapmer, further chemistry not given here) [ISIS 18076, scrambled control for ISIS 15346; 2′-methoxyethoxy gapmer, phosphorothioate throughout, reference compound]
percent hypodiploid cells (a measure of apoptosis) (HUVEC): 8% and 10% and 11%

C^ST^SC^ST^SC^ST^SG^ST^SA^SG^SG^SC^SC^SC^SG^SC^ST^ST^SG^SG (antisense CTCTCTGTAGGCCCGCTTGG; DNA, all phosphorothioate, methylation of C not given here) [ISIS 15346, JNK1 gapmer: P═S, 2′-MOE wings; P═S, 2′-deoxy core]
percent hypodiploid cells (a measure of apoptosis) (HUVEC; HUVEC, Oligo + Cyclohexamide): 8% | percent hypodiploid cells (a measure of apoptosis) (HUVEC; HUVEC, Oligo + TNFa (10 ng/ml)): 14% | percent hypodiploid cells (a measure of apoptosis) (HUVEC; HUVEC, Oligo + z-VAD.fmk): 5% | percent hypodiploid cells (a measure of apoptosis) (HUVEC; HUVEC, Oligo alone): 13%

GTGCGCGCGAGCCCGAAATC (phosphorothioate, 2'-MOE gapmer, further chemistry not given here) [ISIS 18078, scrambled control for ISIS 15353; 2′-methoxyethoxy gapmer, phosphorothioate throughout, reference compound]
percent hypodiploid cells (a measure of apoptosis) (HUVEC): 11% and 12% and 9%
